One compound from patent US20080031868A1, “HUMAN LYSOZYME MEDICINE, ITS MANUFACTURING METHOD AND APPLICATION THEREOF” (priority 2005, published 2008) can be followed below.

One series concerns HELA cell. Put plainly: Toxicity to HELA cell (CPE, Reed-Muench). As to conditions: 6 days. How it is done:
1. Determination of the Toxicity of Recombinant Human Lysozyme to HELA Cell:
HELA cells were seeded on 96-well culture plates at the concentration of 400,000/mi and grown at 37° C. in a 5% CO2 incubator for 2 hours. 100 μl recombinant human lysozyme which were double-diluted from 6000 ug/ml to 11.7 ug/ml and positive reference medicine which were double-diluted from 6000 ug/ml to 11.7 ug/ml were respectively added to 3 wells per concentration. At the same time the reference cells were cultivated at 37° C. in a 5% CO2 incubator for 6 days. Inverted microscope was used everyday to observe the cytopathic effect (CPE). The cytopathic effect under 25% was recorded as “+”, the cytopathic effect under 26%˜50% was recorded as “++”, the cytopathic effect under 51%˜75% was recorded as “+++” and the cytopathic effect under 76%˜100% was recorded as “++++”. Drug median toxic dose (TD50) and minimum toxic dose (TD0) were calculated by using Reed-Muench method.

Series [1] relates to No. 04 Coronavirus. Nature of the series: Inhibition on No. 04 Coronavirus in HELA cells (CPE method). It is filed as cell-based. As to conditions: 2 h.
Protocol: HELA cells were seeded on 96-well cultivation plates at the concentration of 400,000/ml and grown to monolayer at 37° C. in 5% CO2 incubator for 24 hours. After removal of cultivation liquid, coronavirus liquid were added to HELA cells and absorbed at 37° C. in 5% CO2 incubator for 2 hours. […] At the same time reference cells and reference virous were cultivated at 37° C. in 5% CO2 incubator for 5 to 7 days. Inverted microscope was used everyday to observe the cytopathic effect (CPE) of virus. The determination were ended according to the appearance of “+++-++++”. […] The determination was repeated three times.
In series [2] the test system is No. 04 Coronavirus. Nature of the series: organism not typed. In kind it is cell-based.
Protocol: HELA cells were seeded on 96-well cultivation plates at the concentration of 400,000/ml and grown to monolayer at 37° C. in 5% CO2 incubator for 24 hours. […] Then 100 TCID50coronavirus liquid were added to HELA cells. At the same time reference cell and reference virous were cultivated at 37° C. in 5% CO2 incubator for 5 to 7 days. At the same time normal cell reference and virous reference were cultivated at 37° C. in 5% CO2 incubator for 5 to 7 days. Inverted microscope was used everyday to observe the cytopathic effect (CPE) of virus. The determination were ended according to the appearance of “+++-++++”. […] The determination was repeated three times.
The mark [3] stands for this setting: read-out: minimum inhibitory concentration (MIC).
Setting [4] is: HeLa, read-out: median inhibitory concentration (IC50).

SMILES strings stand for the structures. Values after ≈ are worked out from the molar mass of the structure shown.

Regarding `Nc1nc(O)c2ncn(COC(CO)CO)c2n1` [Ganciclovir, reference compound], the “minimum toxic dose (TD0)” value in the series with HELA cell (HELA cells, CPE, Reed-Muench) is 6000 ± 0 µg/mL. The “median toxic dose (TD50)” value with HELA cell (human) was found to be 6000 ± 0 µg/mL. Besides, the MIC with No. 04 Coronavirus [1] (setting [3]) and in the series on No. 04 Coronavirus [2] (setting [3]) was 23.4 µg/mL (≈ 91.8 µM) each time. For the same compound, the IC50 in the series with No. 04 Coronavirus [1] (setting [4]) and in the series with No. 04 Coronavirus [2] (setting [4]) was 11.7 µg/mL (≈ 45.8 µM) each time.
